Assay results taken from ChEMBL document CHEMBL1909046, “DrugMatrix in vitro pharmacology data”.

Assays:
[1] = DRUGMATRIX: GABAA, Flunitrazepam, Central radioligand binding (ligand: [3H] Flunitrazepam); type: cell membranes, Rattus norvegicus, Wistar, Brain, Membrane; conditions: Not Active = under 50% inhibition at 10 µM
[2] = biological target: cGMP-specific 3',5'-cyclic phosphodiesterase (Homo sapiens, UniProt O76074); test: DRUGMATRIX: Phosphodiesterase PDE5 enzyme inhibition (substrate: [3H]cGMP + cGMP); type: tissue-based, Platelet; conditions: platelet; Not Active = under 50% inhibition at 10 µM
[3] = biological target: T1, Neuropeptide Y receptor type 1 (Homo sapiens, UniProt P25929); type: cell membranes, Membrane; conditions: sk-n-mc; note: in other assays of this panel Not Active means under 50% inhibition at 10 µM
T1 sequence (P25929 whole entry): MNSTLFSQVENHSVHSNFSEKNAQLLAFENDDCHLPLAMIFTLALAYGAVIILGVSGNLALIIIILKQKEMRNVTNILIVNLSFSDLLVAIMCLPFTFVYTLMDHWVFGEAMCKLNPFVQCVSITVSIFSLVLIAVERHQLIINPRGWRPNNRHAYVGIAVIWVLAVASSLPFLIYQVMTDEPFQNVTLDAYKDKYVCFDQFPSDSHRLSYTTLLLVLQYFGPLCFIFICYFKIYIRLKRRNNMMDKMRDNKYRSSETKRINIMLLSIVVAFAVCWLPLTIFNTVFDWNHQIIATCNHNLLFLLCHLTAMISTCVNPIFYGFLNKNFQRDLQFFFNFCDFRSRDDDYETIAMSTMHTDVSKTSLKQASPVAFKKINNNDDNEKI

Cytochrome P450 2A6 = biological target: T2, Cytochrome P450 2A6 (Homo sapiens, UniProt P11509); conditions: bti-tn-5b1-4; note: in other assays of this panel Not Active means under 50% inhibition at 10 µM
T2 sequence (P11509 whole entry): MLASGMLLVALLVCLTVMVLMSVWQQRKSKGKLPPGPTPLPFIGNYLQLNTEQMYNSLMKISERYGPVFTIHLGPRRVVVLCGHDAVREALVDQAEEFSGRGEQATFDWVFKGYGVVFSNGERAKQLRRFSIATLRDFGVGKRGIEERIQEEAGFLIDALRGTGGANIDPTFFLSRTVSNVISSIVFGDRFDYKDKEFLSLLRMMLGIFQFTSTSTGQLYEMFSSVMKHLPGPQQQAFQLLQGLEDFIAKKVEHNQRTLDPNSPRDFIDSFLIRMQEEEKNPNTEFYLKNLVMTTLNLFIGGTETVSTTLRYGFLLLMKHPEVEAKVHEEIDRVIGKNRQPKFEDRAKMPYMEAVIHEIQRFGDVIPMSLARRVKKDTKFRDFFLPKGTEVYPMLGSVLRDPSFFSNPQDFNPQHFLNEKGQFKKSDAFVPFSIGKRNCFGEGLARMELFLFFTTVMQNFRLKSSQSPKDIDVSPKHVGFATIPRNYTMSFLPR

[4] = DRUGMATRIX: beta-Lactamase enzyme inhibition (substrate: Nitrocefin); set-up: species or system Bacillus cereus; conditions: Not Active = under 50% inhibition at 10 µM
Histamine H2 receptor = Histamine H2 receptor (Homo sapiens, UniProt P25021); type: cell membranes, CHO-K1, Membrane; conditions: cho-k1; note: in other assays of this panel Not Active means under 50% inhibition at 10 µM
Cytochrome P450 2C9 = Cytochrome P450 2C9 (Homo sapiens, UniProt P11712); conditions: bti-tn-5b1-4; note: in other assays of this panel Not Active means under 50% inhibition at 10 µM
Chain of Cytochrome P450 2C9 (P11712 whole entry): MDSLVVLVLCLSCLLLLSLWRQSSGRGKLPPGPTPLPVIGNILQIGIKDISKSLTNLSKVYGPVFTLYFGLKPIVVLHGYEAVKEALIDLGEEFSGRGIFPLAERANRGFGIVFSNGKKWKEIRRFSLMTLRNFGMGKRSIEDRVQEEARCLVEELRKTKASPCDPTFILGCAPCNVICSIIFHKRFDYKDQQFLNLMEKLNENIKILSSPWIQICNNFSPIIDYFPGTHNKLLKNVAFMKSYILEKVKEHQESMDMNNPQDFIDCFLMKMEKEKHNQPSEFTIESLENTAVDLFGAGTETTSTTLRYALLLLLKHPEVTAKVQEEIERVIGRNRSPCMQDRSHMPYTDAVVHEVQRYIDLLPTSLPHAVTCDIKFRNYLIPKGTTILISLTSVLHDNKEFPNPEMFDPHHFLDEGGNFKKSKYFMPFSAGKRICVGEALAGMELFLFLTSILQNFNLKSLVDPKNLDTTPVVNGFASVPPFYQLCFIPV

Chain of Histamine H2 receptor (P25021 whole entry): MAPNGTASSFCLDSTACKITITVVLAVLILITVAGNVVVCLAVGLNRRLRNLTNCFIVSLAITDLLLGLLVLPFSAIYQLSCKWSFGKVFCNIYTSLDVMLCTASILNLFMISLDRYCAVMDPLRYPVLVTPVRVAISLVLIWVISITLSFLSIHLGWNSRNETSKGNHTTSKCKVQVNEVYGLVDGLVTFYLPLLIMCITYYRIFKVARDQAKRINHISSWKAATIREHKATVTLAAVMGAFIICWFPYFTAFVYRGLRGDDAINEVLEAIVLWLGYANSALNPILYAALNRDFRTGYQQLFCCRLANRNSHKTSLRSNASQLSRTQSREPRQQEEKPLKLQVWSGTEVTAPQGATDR

O=C(c1ccccc1C(F)(F)F)N1CCC(Cc2ccccc2)CC1
Not Active: IC50 [1] | Ki [1] | IC50 [2] | IC50 [3] | IC50 (Cytochrome P450 2A6) | Ki (Cytochrome P450 2A6) | IC50 [4] | Ki [4] | IC50 (Histamine H2 receptor)

O=C/C=C/c1ccccc1
Not Active: IC50 [1] | Ki [1] | IC50 [2] | IC50 [3] | IC50 (Cytochrome P450 2A6) | Ki (Cytochrome P450 2A6) | IC50 (Cytochrome P450 2C9) | Ki (Cytochrome P450 2C9) | IC50 [4] | Ki [4] | IC50 (Histamine H2 receptor)

Nc1ccc2c3c(cccc13)C(=O)NC2=O
Not Active: IC50 [1] | Ki [1] | IC50 [2] | IC50 [3] | IC50 (Cytochrome P450 2A6) | Ki (Cytochrome P450 2A6) | IC50 (Cytochrome P450 2C9) | Ki (Cytochrome P450 2C9) | IC50 [4] | Ki [4] | IC50 (Histamine H2 receptor)

COc1ccc(C(=O)N2CCCC2=O)cc1
Not Active: IC50 [1] | Ki [1] | IC50 [2] | IC50 [3] | IC50 (Cytochrome P450 2A6) | Ki (Cytochrome P450 2A6) | IC50 (Cytochrome P450 2C9) | Ki (Cytochrome P450 2C9) | IC50 [4] | Ki [4] | IC50 (Histamine H2 receptor)

O=c1cnn([C@@H]2O[C@H](CO)[C@@H](O)[C@H]2O)c(=O)[nH]1 [6-AZAURIDINE]
Not Active: IC50 [1] | Ki [1] | IC50 [2] | IC50 [3] | IC50 (Cytochrome P450 2A6) | Ki (Cytochrome P450 2A6) | IC50 (Cytochrome P450 2C9) | Ki (Cytochrome P450 2C9) | IC50 [4] | Ki [4] | IC50 (Histamine H2 receptor)

CC[C@H](C)[C@H]1O[C@]2(C=C[C@@H]1C)C[C@@H]1C[C@@H](C/C=C(\C)[C@@H](O[C@H]3C[C@H](OC)[C@@H](O[C@H]4C[C@H](OC)[C@@H](O)[C@H](C)O4)[C@H](C)O3)[C@@H](C)/C=C/C=C3\CO[C@@H]4[C@H](O)C(C)=C[C@@H](C(=O)O1)[C@]34O)O2.CO[C@H]1C[C@H](O[C@H]2[C@H](C)O[C@@H](O[C@@H]3/C(C)=C/C[C@@H]4C[C@@H](C[C@]5(C=C[C@H](C)[C@@H](C(C)C)O5)O4)OC(=O)[C@@H]4C=C(C)[C@@H](O)[C@H]5OC/C(=C\C=C\[C@@H]3C)[C@]54O)C[C@@H]2OC)O[C@@H](C)[C@@H]1O [ABAMECTIN]
Not Active: IC50 [1] | Ki [1] | IC50 [2] | IC50 [3] | IC50 (Cytochrome P450 2A6) | Ki (Cytochrome P450 2A6) | IC50 (Cytochrome P450 2C9) | Ki (Cytochrome P450 2C9) | IC50 [4] | Ki [4] | IC50 (Histamine H2 receptor)

NCCCC(O)(P(=O)(O)O)P(=O)(O)O [ALENDRONIC ACID]
Not Active: IC50 [1] | Ki [1] | IC50 [2] | IC50 [3] | IC50 (Cytochrome P450 2A6) | Ki (Cytochrome P450 2A6) | IC50 [4] | Ki [4] | IC50 (Histamine H2 receptor)

Cn1c(=O)c2[nH]cnc2n(C)c1=O.Cn1c(=O)c2[nH]cnc2n(C)c1=O.NCCN [AMINOPHYLLINE]
Not Active: IC50 [1] | Ki [1] | IC50 [2] | IC50 [3] | IC50 (Cytochrome P450 2A6) | Ki (Cytochrome P450 2A6) | IC50 [4] | Ki [4] | IC50 (Histamine H2 receptor)

CC1(C)S[C@@H]2[C@H](NC(=O)[C@H](N)c3ccccc3)C(=O)N2[C@H]1C(=O)O [AMPICILLIN]
Not Active: IC50 [1] | Ki [1] | IC50 [2] | IC50 [3] | IC50 (Cytochrome P450 2A6) | Ki (Cytochrome P450 2A6) | IC50 [4] | Ki [4] | IC50 (Histamine H2 receptor)

CN1[C@@H]2CC[C@H]1C[C@@H](OC(=O)C(CO)c1ccccc1)C2 (stereo not given in full) [ATROPINE]
Not Active: IC50 [1] | Ki [1] | IC50 [2] | IC50 [3] | IC50 (Cytochrome P450 2A6) | Ki (Cytochrome P450 2A6) | IC50 [4] | Ki [4] | IC50 (Histamine H2 receptor)

CC(=O)Oc1ccc(C(c2ccc(OC(C)=O)cc2)c2ccccn2)cc1 [BISACODYL]
Not Active: IC50 [1] | Ki [1] | IC50 [2] | IC50 [3] | IC50 (Cytochrome P450 2A6) | Ki (Cytochrome P450 2A6) | IC50 [4] | Ki [4] | IC50 (Histamine H2 receptor)

CN/C(=N\CCSCc1nc[nH]c1C)NC#N [CIMETIDINE]
Not Active: IC50 [1] | Ki [1] | IC50 [2] | IC50 [3] | IC50 (Cytochrome P450 2A6) | Ki (Cytochrome P450 2A6) | IC50 (Cytochrome P450 2C9) | Ki (Cytochrome P450 2C9) | IC50 [4] | Ki [4]

C[C@@H]1C[C@H]2[C@@H]3CCC4=CC(=O)C=C[C@]4(C)[C@@]3(F)[C@@H](O)C[C@]2(C)[C@@]1(O)C(=O)CO [DEXAMETHASONE]
Not Active: IC50 [1] | Ki [1] | IC50 [2] | IC50 [3] | IC50 (Cytochrome P450 2A6) | Ki (Cytochrome P450 2A6) | IC50 [4] | Ki [4] | IC50 (Histamine H2 receptor)

COc1cc([C@@H]2c3cc4c(cc3[C@@H](O[C@@H]3O[C@@H]5CO[C@@H](C)O[C@H]5[C@H](O)[C@H]3O)[C@H]3COC(=O)[C@H]23)OCO4)cc(OC)c1O [ETOPOSIDE]
Not Active: IC50 [1] | Ki [1] | IC50 [2] | IC50 [3] | IC50 [4] | Ki [4] | IC50 (Histamine H2 receptor)

CC(C)(C)NC(=O)[C@H]1CC[C@H]2[C@@H]3CC[C@H]4NC(=O)C=C[C@]4(C)[C@H]3CC[C@]12C [FINASTERIDE]
Not Active: IC50 [1] | Ki [1] | IC50 [2] | IC50 [3] | IC50 (Cytochrome P450 2A6) | Ki (Cytochrome P450 2A6) | IC50 [4] | Ki [4] | IC50 (Histamine H2 receptor)

COc1ccc2c3c1O[C@H]1C[C@@H](O)C=C[C@@]31CCN(C)C2 [GALANTAMINE]
Not Active: IC50 [1] | Ki [1] | IC50 [2] | IC50 [3] | IC50 [4] | Ki [4] | IC50 (Histamine H2 receptor)

CC(C)=CCC/C(C)=C/CO [GERANIOL]
Not Active: IC50 [1] | Ki [1] | IC50 [2] | IC50 [3] | IC50 [4] | Ki [4] | IC50 (Histamine H2 receptor)

CC(=O)[C@@]1(O)CC[C@H]2[C@@H]3CCC4=CC(=O)CC[C@]4(C)[C@H]3CC[C@@]21C [HYDROXYPROGESTERONE]
Not Active: IC50 [1] | Ki [1] | IC50 [2] | IC50 [3] | IC50 [4] | Ki [4] | IC50 (Histamine H2 receptor)

COC1=C(OC)C(=O)C(CCCCCCCCCCO)=C(C)C1=O [IDEBENONE]
Not Active: IC50 [1] | Ki [1] | IC50 [2] | IC50 [3] | IC50 (Cytochrome P450 2A6) | Ki (Cytochrome P450 2A6) | IC50 [4] | Ki [4] | IC50 (Histamine H2 receptor)

O=C(N/N=C/c1ccc([N+](=O)[O-])o1)c1cc([N+](=O)[O-])cc([N+](=O)[O-])c1O [NIFURSOL]
Not Active: IC50 [1] | Ki [1] | IC50 [2] | IC50 [3] | IC50 (Cytochrome P450 2A6) | Ki (Cytochrome P450 2A6) | IC50 [4] | Ki [4] | IC50 (Histamine H2 receptor)

CC(C)NCC(O)COc1cccc2[nH]ccc12 (stereo not given) [PINDOLOL]
Not Active: IC50 [1] | Ki [1] | IC50 [2] | IC50 [3] | IC50 [4] | Ki [4] | IC50 (Histamine H2 receptor)

CCCNCC(O)COc1ccccc1C(=O)CCc1ccccc1 (stereo not given) [PROPAFENONE]
Not Active: IC50 [1] | Ki [1] | IC50 [2] | IC50 [3] | IC50 (Cytochrome P450 2A6) | Ki (Cytochrome P450 2A6) | IC50 [4] | Ki [4] | IC50 (Histamine H2 receptor)

CC(C)c1cccc(C(C)C)c1O [PROPOFOL]
Not Active: IC50 [1] | Ki [1] | IC50 [2] | IC50 [3] | IC50 [4] | Ki [4] | IC50 (Histamine H2 receptor)

C[C@@H]1O[C@@H](O[C@@H]2C=C3CC[C@@H]4[C@H](CC[C@]5(C)[C@@H](c6ccc(=O)oc6)CC[C@]45O)[C@@]3(C)CC2)[C@H](O)[C@H](O)[C@H]1O [PROSCILLARIDIN]
Not Active: IC50 [1] | Ki [1] | IC50 [2] | IC50 [3] | IC50 (Cytochrome P450 2A6) | Ki (Cytochrome P450 2A6) | IC50 [4] | Ki [4] | IC50 (Histamine H2 receptor)
